Assay results as given in US8822506B2, “Use of succinate dehydrogenase inhibitors for controlling powdery mildew primary infections” (Bayer Cropscience AG, priority 2009, dated 2014).

How the values were obtained:
Assay type in all cases: in vivo, Podosphera leucotricha
Powdery mildew [1] = test: Apple orchard field trial, powdery mildew primary infection of shoots in the following year, assessed 345 days after application 8; details: apples, 8 applications; for 345DAT8 [% infested shoots]: 345 days after application 8, no other application, untreated 45.2; for 345DAT8 [% efficacy] (Abbott): 345 days after application 8, infested shoots
Experimental: (§1) Fluopyram was tested in apples orchard in comparison with already know fungicides active against Powdery mildew such as triadimenol (Bayleton) and boscalid.
(§2) Fluopyram was applied at range of rates: 18.5 g-25 g-37.5-50 g a.s./ha/meter canopy height (g ha/m c.h.). Bayleton was applied at 25 g a.s./ha/m c.h. Boscalid (Cantus WG50) was applied at 125 g a.s./m c.h.
(§3) During the spray season, the compounds were applied at apple susceptible stages from BBCH09 (green leaf tips 5 mm above bud scales to BBCH73 Fruit size between 20 and 40 mm (as described in BBCH Monograph, 2. Edition, 2001, edited by Uwe Meier, Federal Biological Research Centre for Agriculture and Forestry) in order to protect leaves, buds and shoots against Powdery mildew. The compounds have been applied eight times with an interval of ten days during spray season.
(§4) The type of assessments of infections was: • % infested area on leaves (severity) and % infested leaves (incidence) were assessed 10 days after application 8 (10DAT8). • Count and % infested shoots (primary infection) were assessed 345 days after application 8 (345 DAT8). Results

Powdery mildew [2] = test: Apple orchard field trial, powdery mildew secondary infections on leaves (incidence), assessed 10 days after application 8; details: for 10DAT8 [% infested leaves] / 10DAT8 [% efficacy] (Abbott): apples, 10 days after application 8; for 10DAT8 [% infested leaves]: 8 applications at 10-day interval, untreated 96; for 10DAT8 [% efficacy] (Abbott): 8 applications, infested leaves
Experimental: as §1, §2, §3, §4

Powdery mildew [3] = test: Apple orchard field trial, powdery mildew primary infection of shoots in the following year, assessed 345 days after application 8; details: proximate year (assessment 345DAT8), without any other application; dose rate relation, 18.5 to 50 g a.s./m c.h.

With O=C(Nc1ccccc1-c1ccc(Cl)cc1)c1cccnc1Cl [Boscalid, 2-chloro-N-(4′-chlorobiphenyl-2-yl)nicotinamide] the “345DAT8 [% infested shoots]” value (Powdery mildew [1]; 125 g a.s./ha/m c.h.) was 30.8%, the “345DAT8 [% efficacy] (Abbott)” value (Powdery mildew [1]; 125 g a.s./ha/m c.h.) was 31.7% and the “10DAT8 [% infested leaves]” value (Powdery mildew [2]; 125 g a.s./ha/m c.h.) was 46%. The “10DAT8 [% efficacy] (Abbott)” value (Powdery mildew [2]; 125 g a.s./ha/m c.h.) was 52.1%.

With O=C(NCCc1ncc(C(F)(F)F)cc1Cl)c1ccccc1C(F)(F)F [Fluopyram, N-{2-[3-chloro-5-(trifluoromethyl)-2-pyridinyl]ethyl}-2-(trifluoromethyl)benzamide] the “345DAT8 [% infested shoots]” value (Powdery mildew [1]; 18.5 g a.s./ha/m c.h.) was 17.7%, the “345DAT8 [% efficacy] (Abbott)” value (Powdery mildew [1]; 18.5 g a.s./ha/m c.h.) was 60.9% and the “345DAT8 [% infested shoots]” value (Powdery mildew [1]; 25 g a.s./ha/m c.h.) was 14%. For the same compound, the “345DAT8 [% efficacy] (Abbott)” value (Powdery mildew [1]; 25 g a.s./ha/m c.h.) was 69%, the “345DAT8 [% infested shoots]” value (Powdery mildew [1]; 37.5 g a.s./ha/m c.h.) was 13% and the “345DAT8 [% efficacy] (Abbott)” value (Powdery mildew [1]; 37.5 g a.s./ha/m c.h.) was 71.2%. The “345DAT8 [% infested shoots]” value (Powdery mildew [1]; 50 g a.s./ha/m c.h.) was 9%, the “345DAT8 [% efficacy] (Abbott)” value (Powdery mildew [1]; 50 g a.s./ha/m c.h.) was 80.1% and the “10DAT8 [% infested leaves]” value (Powdery mildew [2]; 18.5 g a.s./ha/m c.h.) was 8.7%. For the same compound, the “10DAT8 [% efficacy] (Abbott)” value (Powdery mildew [2]; 18.5 g a.s./ha/m c.h.) was 91%, the “10DAT8 [% infested leaves]” value (Powdery mildew [2]; 25 g a.s./ha/m c.h.) was 10% and the “10DAT8 [% efficacy] (Abbott)” value (Powdery mildew [2]; 25 g a.s./ha/m c.h.) was 89.6%. For the same compound, the “10DAT8 [% infested leaves]” value (Powdery mildew [2]; 37.5 g a.s./ha/m c.h.) was 2.7%, the “10DAT8 [% efficacy] (Abbott)” value (Powdery mildew [2]; 37.5 g a.s./ha/m c.h.) was 97.2% and the “10DAT8 [% infested leaves]” value (Powdery mildew [2]; 50 g a.s./ha/m c.h.) was 0.7%. For the same compound, the “10DAT8 [% efficacy] (Abbott)” value (Powdery mildew [2]; 50 g a.s./ha/m c.h.) was 99.3%, the “efficacy against powdery mildew on apples against secondary infections (in words)” value (Powdery mildew [2]; assessment 10DAT8, 18.5 g to 50 g a.s./m c.h., visible dose rate effect, superior to triadimenol and boscalid from the lowest rate) was “excellent efficacy” and the “level of infection measured by the % of primary infested shoots (in words)” value (Powdery mildew [3]) was “high decrease of infestation”.

With CC(C)(C)C(O)C(Oc1ccc(Cl)cc1)n1cncn1 (centres unmarked) [Triadimenol] the “345DAT8 [% infested shoots]” value (Powdery mildew [1]; 25 g a.s./ha/m c.h.) was 27.5%, the “345DAT8 [% efficacy] (Abbott)” value (Powdery mildew [1]; 25 g a.s./ha/m c.h.) was 39.1% and the “10DAT8 [% infested leaves]” value (Powdery mildew [2]; 25 g a.s./ha/m c.h.) was 32%. The “10DAT8 [% efficacy] (Abbott)” value (Powdery mildew [2]; 25 g a.s./ha/m c.h.) was 66.7%.
